Consider four molecules from patent US9242970B2 (ACTELION PHARMACEUTICALS LTD., priority 2010, dated 2016).

Assay [1] deals with rat. Particulars: cited from earlier work.
For assay [2], the system named is rat. Particulars: cited from earlier work. This is another data set of the same source.
Assay [3] relates to rat. The note with it: rat model; cited from earlier work.
The next assay addresses human orexin-2 receptor (Homo sapiens (Human), UniProt O43614). Briefly: In vitro assay: intracellular calcium measurements (FLIPR), antagonistic activity. It is filed as cell-based. Particulars: CHO cells, 3 nM orexin-A, compound incubation 120 min; marked values are geometric means of n = 2-6; read-out: IC50 OX2. In general terms: Calcium assays in cells follow changes in intracellular calcium, usually with a dye or a luminescent sensor.

The target in the next assay is human orexin-1 receptor (Homo sapiens (Human), UniProt O43613). The assay is described as above. It is filed as cell-based. The note with it: CHO cells, 3 nM orexin-A, compound incubation 120 min; marked values are geometric means of n = 2-6; read-out: IC50 OX1.
Chain of human orexin-1 receptor (O43613 whole entry): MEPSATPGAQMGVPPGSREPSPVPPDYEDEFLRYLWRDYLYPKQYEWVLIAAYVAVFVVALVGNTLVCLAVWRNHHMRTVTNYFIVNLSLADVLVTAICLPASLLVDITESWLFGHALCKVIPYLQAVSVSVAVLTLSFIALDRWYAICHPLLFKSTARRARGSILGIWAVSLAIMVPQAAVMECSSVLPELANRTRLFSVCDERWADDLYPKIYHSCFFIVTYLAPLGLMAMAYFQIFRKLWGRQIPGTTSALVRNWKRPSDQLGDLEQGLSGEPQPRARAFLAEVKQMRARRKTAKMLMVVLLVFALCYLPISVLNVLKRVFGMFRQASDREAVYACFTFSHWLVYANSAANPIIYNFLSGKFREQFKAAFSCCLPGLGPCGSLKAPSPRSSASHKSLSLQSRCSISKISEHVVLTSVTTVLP

Chain of human orexin-2 receptor (O43614 whole entry): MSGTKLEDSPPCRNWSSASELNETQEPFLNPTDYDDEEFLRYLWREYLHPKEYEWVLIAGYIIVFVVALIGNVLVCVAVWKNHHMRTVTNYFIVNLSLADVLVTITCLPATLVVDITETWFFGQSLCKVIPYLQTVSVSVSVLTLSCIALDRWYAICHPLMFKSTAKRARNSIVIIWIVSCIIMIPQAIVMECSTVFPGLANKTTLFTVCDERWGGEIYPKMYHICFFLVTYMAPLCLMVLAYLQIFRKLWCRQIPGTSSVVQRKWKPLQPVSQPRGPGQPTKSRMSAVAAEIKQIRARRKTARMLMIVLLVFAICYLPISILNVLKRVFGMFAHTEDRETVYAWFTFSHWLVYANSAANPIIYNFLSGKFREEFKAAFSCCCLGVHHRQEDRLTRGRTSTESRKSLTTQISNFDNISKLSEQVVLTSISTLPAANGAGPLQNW

Consider `CNC(=O)[C@@H](c1ccccc1)N1CCc2cc(OC)c(OC)cc2[C@@H]1CCc1ccc(C(F)(F)F)cc1` [(2R)-2-{(1S)-6,7-dimethoxy-1-[2-(4-trifluoromethyl-phenyl)-ethyl]-3,4-dihydro-1H-isoquinolin-2-yl}-N-methyl-2-phenyl-acetamide], for which, in the assay on rat [1], the “alertness (active wake and locomotion)” value is “decrease alertness”; the “time spent in REM and NREM sleep” value is “dose-dependently increase the time spent in both REM and NREM sleep”. The “activity in post-traumatic stress disorder model” value in the assay with rat [2] is on record as “active”. Moreover, the memory function entry in the assay on rat [3] is “enhance memory function”.
For orientation: IC50 means the midpoint of a concentration-inhibition curve. `COc1ccc2c(c1C1CCCC(=O)N1Cc1cccc(Oc3ccccc3)c1)OCO2` (stereo not shown) [Example 458, 6-(5-methoxybenzo[d][1,3]dioxol-4-yl)-1-(3-phenoxybenzyl)piperidin-2-one]: the IC50 was 14 nM at human orexin-2 receptor and 142 nM at human orexin-1 receptor.
`COc1ccc2c(c1C1CCCC(=O)N1Cc1csc(-c3ccccc3)n1)OCO2` (stereo not shown) [Example 459, 6-(5-methoxybenzo[d][1,3]dioxol-4-yl)-1-((2-phenylthiazol-4-yl)methyl)piperidin-2-one]: the values for the half-inhibitory concentration (IC50) at human orexin-2 receptor and at human orexin-1 receptor were 40 nM and 108 nM, respectively.
Turning to “rac-(3R*,5S*)-(3-chloro-4-(trifluoromethoxy)benzyl)-5-(2-ethoxy-6-fluorophenyl)-3-hydroxypyrrolidin-2-one [Example 429]”, the IC50 on human orexin-2 receptor turned out to be 15 nM; on human orexin-1 receptor it was 1160 nM.
